Values after ≈ are worked out from the molar mass of the structure shown. Read-outs that look alike come from different tables or passages of the source.
How the values were obtained:
[1] = tested on: peptic ulcer induced by water immersion restrain stress; assay: Inhibitory action against peptic ulcer induced by water immersion restrain stress; format: in vivo, SD male rats; settings: Rattus norvegicus, read-out: Inhibitory action against stress peptic ulcer, percent inhibition of peptic ulcer formation
Method: Inhibitory Action Against Peptic Ulcer Induced By Water Immersion Restrain Stress
SD male rats (weighing 200-300 g) were fasted for 24 hours before oral administration of a thiourea derivative of the invention at a dose of 32 mg/kg bodyweight. One hour later, the animal was put in a stress cage and loaded with water immersion restraint stress in a water bath at 23° C.
Seven hours after loading with the stress, the rat was sacrificed with ether, and the stomach was excised and treated with formalin. Area (mm^2) of the lesions developed in the glandular stomach area was then measured. Results were expressed in sum of the lesions per animal which was referred to as peptic ulcer index.
Percent inhibition of the peptic ulcer formation (%) as shown in the table was calculated according to the following equation: [formula]

[2] = tested on: ethanol peptic ulcer; assay: Inhibitory action against ethanol peptic ulcer; format: in vivo, SD male rats; settings: Rattus norvegicus, read-out: Inhibitory action against ethanol peptic ulcer, percent inhibition of peptic ulcer formation
Method: Inhibitory Action Against Ethanol Peptic Ulcer
SD male rats (weighing 200-300 g) were fasted for 24 hours before oral administration of a thiourea derivative of the invention at a dose of 32 mg/kg bodyweight. One hour later, ethanol was orally given in a volume of 0.5 ml/100 g bodyweight. One hour after administering ethanol, the rat was sacrificed with ether, and the stomach was excised and treated with formalin. Area (mm^2) of the lesions developed in the glandular stomach area was then measured. Results were expressed in sum of the lesions per animal which was referred to as peptic ulcer index.
Percent inhibition of the peptic ulcer formation (%) as shown in the table was calculated according to the same equation as mentioned above.

[3] = tested on: Helicobacter pylori; assay: Antimicrobial activity against Helicobacter pylori (MIC); format: cell-based, Helicobacter pylori strain NCTC 11916
Method: Antimicrobial Activity Against Helicobacter Pylori
Antimicorbial activity of the thiourea derivatives according to the invention against Helicobacter pylori (or Campylobacter pylori) was evaluated by employing strain NCTC 11916 as a Helicobacter test organism and determining MIC (minimum inhibitory concentration) of the thiourea derivative against Helicobacter pylori.
The Helicobacter pylori was pre-incubated in a plate medium for 3-5 days. […] These antibiotics were contained for inhibition of the growth of microorganisms with than Helicobacter pylori.
The Helicobacter pylori pre-incubated under slightly aerobic conditions (an O2 concentration of about 5%) at 37° C. for 3-5 days was suspended in a physiological saline solution in a concentration of approximately 10^8 organisms/ml. Approximately 10-20 μl of the suspension was inoculated on a medium for MIC measurement in cross streaks. […] The DMSO solution was formed by the twofold dilution method using sterilized distilled water. As in the pre-incubation, the Helicobacter pylori was cultured under slightly aerobic conditions at 37° C. for 3-5 days. After completion of the culture, growth of the microorganisms on the streaks was visually determined. […] The MIC of cemetidine, an antagonist to histamine was also measured for comparison.

[4] = SD male rats, oral, 32 mg/kg, 1 hour before stress, lesions measured 7 hours after loading with the stress
[5] = SD male rats, oral, 32 mg/kg, 1 hour before ethanol (0.5 ml/100 g), lesions measured 1 hour after ethanol
[6] = NCTC11916, strain NCTC 11916, Mueller-Hinton agar with horse hemolysis solution, 37° C., 3-5 days, slightly aerobic (O2 about 5%), read-out: Antimicrobial activity against Helicobacter pylori, MIC (minimum inhibitory concentration)

Row | SMILES | inhibition in vivo at 32 mg/kg [1, 4] | inhibition in vivo at 32 mg/kg [2, 5] | MIC [3, 6] | inhibition in vivo at 32 mg/kg ([1]; po, 7 h) | inhibition in vivo at 32 mg/kg ([2]; po, 1 h) | MIC ([3]; NCTC11916, read-out: Antimicrobial activity against Helicobacter pylori, MIC (minimum inhibitory concentration))
1 | O=C(CCCNC(=S)Nc1ccc2c(c1)OCO2)NCCCOc1cc(CN2CCCCC2)ccn1 [Example 7] | 78% | 63% | 6.25 µg/mL (≈ 12.2 µM) | – | – | –
2 | O=C(CCCCCNC(=S)Nc1ccc2c(c1)OCO2)NCCCOc1cccc(CN2CCCCC2)c1 [Example 6] | 65% | 70% | 6.25 µg/mL (≈ 11.6 µM) | – | – | –
3 | CC1CCCN(Cc2cccc(OCCCNC(=O)CCCNC(=S)Nc3ccc4c(c3)OCO4)c2)C1 (stereo not drawn) [Example 4, 1-[3-[N-[3-[3((3-methylpiperidino)methyl)phenoxy]propyl]carbamoyl]propyl]-3-[(3,4-methylenedioxy)phenyl]thiourea] | 77% | 71% | 6.25 µg/mL (≈ 11.9 µM) | – | – | –
4 | O=C(CCCNC(=S)Nc1ccc2c(c1)OCO2)NCCCOc1cccc(CN2CCCC2)c1 [Example 3, 1-[3-[N-[3-[3-(pyrrolidinomethyl)phenoxy]propyl]carbamoyl]propyl]-3-[(3,4-methylenedioxy)phenyl]-thiourea] | 68% | 61% | 6.25 µg/mL (≈ 12.5 µM) | – | – | –
5 | O=C(CCCNC(=S)Nc1ccc2c(c1)OCCO2)NCCCOc1cccc(CN2CCCCC2)c1 [Example 2, 1-[3-[N-[3-[3-(piperidinomethy)phenoxy]propyl]carbamoyl]propyl]-3-[(3,4-ethylenedioxy)phenyl]thiourea] | 76% | 66% | 6.25 µg/mL (≈ 11.9 µM) | – | – | –
6 | CCN(CC)Cc1cccc(OCCCNC(=O)CCCNC(=S)Nc2ccc3c(c2)OCO3)c1 [Example 5, 1-[3-[N-[3-[3-(diethylaminomethyl)phenoxy]propyl]carbamoyl]propyl]-3-[(3,4-methylenedioxy)phenyl]thiourea] | 62% | 52% | 12.5 µg/mL (≈ 25 µM) | – | – | –
7 | O=C(CCCNC(=S)NCc1ccc2c(c1)OCO2)NCCCOc1cccc(CN2CCCCC2)c1 [Example 8] | 82% | 78% | 6.25 µg/mL (≈ 11.9 µM) | – | – | –
8 | O=C(CCCNC(=S)Nc1ccc2c(c1)OCO2)NCCCOc1cccc(CN2CCCCC2)c1 [Example 1, 1-[3-[N-[3-[3(piperidinomethyl)phenoxy]propyl]carbamoyl]propyl]-3-[(3,4methylenedioxy)phenyl] thiourea] | 80% | 67% | 6.25 µg/mL (≈ 12.2 µM) | – | – | –
9 | CNC(=NC#N)NCCSCc1nc[nH]c1C [Cemetidine, reference compound] | – | – | – | 64% | 16% | ≥ 400 µg/mL

Source: patent US5214053A, “Thiourea derivatives and antimicrobial agent and antiulcer agent containing the same” (Terumo Kabushiki Kaisha, priority 1991, dated 1993)
